Experimental findings from US10508104B2, “6-hydroxy-5-(phenyl/heteroarylsulfonyl)pyrimidin-4(1H)-one as APJ agonists” (Bristol-Myers Squibb Company, priority 2016, dated 2019) are described below.

Sequence of human APJ receptor (P35414 whole entry): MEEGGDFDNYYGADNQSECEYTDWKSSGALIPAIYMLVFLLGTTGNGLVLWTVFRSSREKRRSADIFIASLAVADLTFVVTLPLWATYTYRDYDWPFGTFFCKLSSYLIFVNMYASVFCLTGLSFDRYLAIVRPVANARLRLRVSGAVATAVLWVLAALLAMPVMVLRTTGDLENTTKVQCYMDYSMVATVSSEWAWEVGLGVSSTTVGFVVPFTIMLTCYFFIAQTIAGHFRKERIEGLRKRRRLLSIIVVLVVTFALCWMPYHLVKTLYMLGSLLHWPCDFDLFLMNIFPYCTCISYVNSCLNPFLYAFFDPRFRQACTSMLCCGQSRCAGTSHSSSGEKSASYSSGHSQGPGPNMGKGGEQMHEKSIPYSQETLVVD

The target of the first assay is human APJ receptor (Homo sapiens (Human), UniProt P35414). As to the kind of experiment: Intracellular cAMP accumulation assay (APJ hcAMP, HTRF). The class given is cell-based. The settings on record: HEK293 cells stably expressing human APJ receptor; inhibition of forskolin-mediated cAMP production; read-out: Human APJ cAMP EC50 Potency range. In a few lines:
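HEK293 cells stably expressing human APJ, 5,000 per well, incubated 30 min at rt with compound, […] and 2 μM forskolin. cAMP measured by HTRF against a cAMP standard curve as inhibition of forskolin-driven production. EC50 from variable-slope sigmoidal fit.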
(cAMP levels reflect the balance of adenylyl cyclase and phosphodiesterase activity.)
Consider `COC[C@@H](c1ccccc1)n1c(CCC(C)C)nc(=O)c(S(=O)(=O)c2ccc(Br)cc2)c1O` [Example 184, (R)-5-((4-Bromophenyl)sulfonyl)-6-hydroxy-2-isopentyl-3-(2-methoxy-1-phenylethyl)pyrimidin-4(3H)-one], for which the EC50 is 10 to 100 nM.
Still for that read-out and setting: in the case of `COC[C@@H](c1ccccc1)n1c(CCC(C)C)nc(=O)c(S(=O)(=O)c2ccc(-c3ccnc(F)c3C)cc2)c1O` [Example 189, (R)-5-((4-(2-Fluoro-3-methylpyridin-4-yl)phenyl)sulfonyl)-6-hydroxy-2-isopentyl-1-(2-methoxy-1-phenylethyl)pyrimidin-4(1H)-one] it was 0.01 to 10 nM.

The same assay, now with this note: human APJ, intracellular cAMP accumulation; read-out: Human APJ cAMP EC50 Potency range.
For the molecule `COC[C@@H](c1ccccc1)n1c(CC2CC2)nc(=O)c(S(=O)(=O)c2ccc(-c3ccnc(F)c3C)cc2)c1O` [Example 179, 2-(cyclopropylmethyl)-5-[4-(2-fluoro-3-methylpyridin-4-yl)benzenesulfonyl]-6-hydroxy-1-[(1R)-2-methoxy-1-phenylethyl]-1,4-dihydropyrimidin-4-one], the EC50 lay in the range of 0.01 to 10 nM.
Still for that read-out and setting: in the case of `COC[C@@H](c1ccccc1)n1c(CC2CC2)nc(=O)c(S(=O)(=O)c2ccc(-c3cccnc3C)cc2)c1O` [Example 180, 2-(cyclopropylmethyl)-6-hydroxy-1-[(1R)-2-methoxy-1-phenylethyl]-5-[4-(2-methylpyridin-3-yl)benzenesulfonyl]-1,4-dihydropyrimidin-4-one] it was 0.01 to 10 nM.
On the same count and under the same terms, in the case of `COC[C@@H](c1ccccc1)n1c(CC2CC2)nc(=O)c(S(=O)(=O)c2ccc(-c3cncc(F)c3)cc2)c1O` [Example 181, 2-(cyclopropylmethyl)-5-[4-(5-fluoropyridin-3-yl)benzenesulfonyl]-6-hydroxy-1-[(1R)-2-methoxy-1-phenylethyl]-1,4-dihydropyrimidin-4-one] it was 0.01 to 10 nM; in that of `COC[C@@H](c1ccccc1)n1c(CC2CC2)nc(=O)c(S(=O)(=O)c2ccc(-c3ccc(F)nc3)cc2)c1O` [Example 182, 2-(cyclopropylmethyl)-5-[4-(6-fluoropyridin-3-yl)benzenesulfonyl]-6-hydroxy-1-[(1R)-2-methoxy-1-phenylethyl]-1,4-dihydropyrimidin-4-one], 0.01 to 10 nM; in that of `COC[C@@H](c1ccccc1)n1c(CC2CC2)nc(=O)c(S(=O)(=O)c2ccc(-c3ccc(F)nc3C)cc2)c1O` [Example 183, 2-(cyclopropylmethyl)-5-[4-(6-fluoro-2-methylpyridin-3-yl)benzenesulfonyl]-6-hydroxy-1-[(1R)-2-methoxy-1-phenylethyl]-1,4-dihydropyrimidin-4-one], 0.01 to 10 nM.
Still for that read-out and setting: the same measure for `CCCCc1nc(=O)c(S(=O)(=O)c2ccc(Br)cc2)c(O)n1[C@H](C)c1ccc(OC)cc1` [Example 185, 5-(4-bromobenzenesulfonyl)-2-butyl-6-hydroxy-1-[(1R)-1-(4-methoxyphenyl)ethyl]-1,4-dihydropyrimidin-4-one]: 100 to 300 nM; for `CCCCc1nc(O)c(S(=O)(=O)c2ccc(Br)cc2)c(=O)n1C(C)c1cccnc1` (stereo not shown) [Example 187, 5-(4-bromobenzenesulfonyl)-2-butyl-6-hydroxy-3-[1-(pyridin-3-yl)ethyl]-3,4-dihydropyrimidin-4-one]: 100 to 300 nM.
As to `COC[C@@H](c1ccccc1)n1c(CCC(C)C)nc(=O)c(S(=O)(=O)c2ccc(-c3cccnc3C)cc2)c1O` [Example 190, 6-hydroxy-1-[(1R)-2-methoxy-1-phenylethyl]-2-(3-methylbutyl)-5-[4-(2-methylpyridin-3-yl)benzenesulfonyl]-1,4-dihydropyrimidin-4-one], the EC50 was 0.01 to 10 nM.
Same read-out and setting: the same measure for `COC[C@@H](c1ccccc1)n1c(CCC(C)C)nc(=O)c(S(=O)(=O)c2ccc(-c3ccncc3C)cc2)c1O` [Example 191, 6-hydroxy-1-[(1R)-2-methoxy-1-phenylethyl]-2-(3-methylbutyl)-5-[4-(3-methylpyridin-4-yl)benzenesulfonyl]-1,4-dihydropyrimidin-4-one]: 0.01 to 10 nM; for `CCCCc1nc(=O)c(S(=O)(=O)c2ccc(-c3ccncc3C)cc2)c(O)n1[C@@H](CC)c1cccc(Cl)c1` [Example 192, 2-butyl-1-[(1S)-1-(3-chlorophenyl)propyl]-6-hydroxy-5-[4-(3-methylpyridin-4-yl)benzenesulfonyl]-1,4-dihydropyrimidin-4-one]: 0.01 to 10 nM; for `CCCCc1nc(=O)c(S(=O)(=O)c2ccc(-c3cccnc3C)cc2)c(O)n1[C@@H](CC)c1cccc(Cl)c1` [Example 193, 2-butyl-1-[(1S)-1-(3-chlorophenyl)propyl]-6-hydroxy-5-[4-(2-methylpyridin-3-yl)benzenesulfonyl]-1,4-dihydropyrimidin-4-one]: 0.01 to 10 nM.
Still for that read-out and setting: in the case of `CCCCc1nc(=O)c(S(=O)(=O)c2ccc(-c3ccnc(F)c3C)cc2)c(O)n1[C@@H](CC)c1cccc(Cl)c1` [Example 194, 2-butyl-1-[(1S)-1-(3-chlorophenyl)propyl]-5-[4-(2-fluoro-3-methylpyridin-4-yl)benzenesulfonyl]-6-hydroxy-1,4-dihydropyrimidin-4-one] it was 0.01 to 10 nM.
Same read-out and setting: the same measure for `COC[C@@H](c1ccccc1)n1c(CCC(C)C)nc(=O)c(S(=O)(=O)c2ccc(-c3cncc(F)c3)cc2)c1O` [Example 195, 5-[4-(5-fluoropyridin-3-yl)benzenesulfonyl]-6-hydroxy-1-[(1R)-2-methoxy-1-phenylethyl]-2-(3-methylbutyl)-1,4-dihydropyrimidin-4-one]: 0.01 to 10 nM; for `COC[C@@H](c1ccccc1)n1c(CCC(C)C)nc(=O)c(S(=O)(=O)c2ccc(-c3ccc(F)nc3C)cc2)c1O` [Example 196, 5-[4-(6-fluoro-2-methylpyridin-3-yl)benzenesulfonyl]-6-hydroxy-1-[(1R)-2-methoxy-1-phenylethyl]-2-(3-methylbutyl)-1,4-dihydropyrimidin-4-one]: 0.01 to 10 nM.
`CCCCc1nc(=O)c(S(=O)(=O)c2ccc(-c3cncc(F)c3)cc2)c(O)n1[C@@H](CC)c1cccc(Cl)c1` [Example 197, 2-butyl-1-[(1S)-1-(3-chlorophenyl)propyl]-5-[4-(5-fluoropyridin-3-yl)benzenesulfonyl]-6-hydroxy-1,4-dihydropyrimidin-4-one]: the EC50 lay within 0.01 to 10 nM.
For the molecule `CCCCc1nc(=O)c(S(=O)(=O)c2ccc(-c3ccc(F)nc3C)cc2)c(O)n1[C@@H](CC)c1cccc(Cl)c1` [Example 198, 2-butyl-1-[(1S)-1-(3-chlorophenyl)propyl]-5-[4-(6-fluoro-2-methylpyridin-3-yl)benzenesulfonyl]-6-hydroxy-1,4-dihydropyrimidin-4-one], the EC50 lay within 0.01 to 10 nM.
On the same count and under the same terms, in the case of `COC[C@@H](c1ccccc1)n1c(CCC(C)C)nc(=O)c(S(=O)(=O)c2ccc(-c3ccc(F)nc3)cc2)c1O` [Example 199, 5-[4-(6-fluoropyridin-3-yl)benzenesulfonyl]-6-hydroxy-1-[(1R)-2-methoxy-1-phenylethyl]-2-(3-methylbutyl)-1,4-dihydropyrimidin-4-one] it was 0.01 to 10 nM; in that of `CCCCc1nc(=O)c(S(=O)(=O)c2ccc(-c3ccc(F)nc3)cc2)c(O)n1[C@@H](CC)c1cccc(Cl)c1` [Example 200, 2-butyl-1-[(1S)-1-(3-chlorophenyl)propyl]-5-[4-(6-fluoropyridin-3-yl)benzenesulfonyl]-6-hydroxy-1,4-dihydropyrimidin-4-one], 0.01 to 10 nM; in that of `CCCCc1nc(=O)c(S(=O)(=O)c2ccc(-c3ccncc3C)cc2)c(O)n1C(c1ccccc1)C1CC1` (stereo not shown) [Example 201], 0.01 to 10 nM.
Still for that read-out and setting: in the case of `CCCCc1nc(=O)c(S(=O)(=O)c2ccc(-c3ccc(F)nc3C)cc2)c(O)n1C(c1ccccc1)C1CC1` (stereo not shown) [Example 202, 2-butyl-1-[cyclopropyl(phenyl)methyl]-5-[4-(6-fluoro-2-methylpyridin-3-yl)benzenesulfonyl]-6-hydroxy-1,4-dihydropyrimidin-4-one] it was 0.01 to 10 nM.
Still for that read-out and setting: in the case of `CCCCc1nc(=O)c(S(=O)(=O)c2ccc(-c3ccnc(F)c3C)cc2)c(O)n1C(C)c1cccnc1` (stereo not shown) [Example 203, 2-butyl-5-[4-(2-fluoro-3-methylpyridin-4-yl)benzenesulfonyl]-6-hydroxy-1-[1-(pyridin-3-yl)ethyl]-1,4-dihydropyrimidin-4-one] it was 0.01 to 10 nM; in that of `CCCCc1nc(=O)c(S(=O)(=O)c2ccc(-c3ccnc(F)c3C)cc2)c(O)n1C(c1ccccc1)C1CC1` (stereo not shown) [Example 204, 2-butyl-1-[cyclopropyl(phenyl)methyl]-5-[4-(2-fluoro-3-methylpyridin-4-yl)benzenesulfonyl]-6-hydroxy-1,4-dihydropyrimidin-4-one], 0.01 to 10 nM; in that of `CCCCc1nc(=O)c(S(=O)(=O)c2ccc(-c3ccncc3C)cc2)c(O)n1C(C)c1cccnc1` (stereo not shown) [Example 205, 2-butyl-6-hydroxy-5-[4-(3-methylpyridin-4-yl)benzenesulfonyl]-1-[1-(pyridin-3-yl)ethyl]-1,4-dihydropyrimidin-4-one], 0.01 to 10 nM.
For the molecule `CCCCc1nc(=O)c(S(=O)(=O)c2ccc(-c3cccnc3C)cc2)c(O)n1C(c1ccccc1)C1CC1` (stereo not shown) [Example 206, 2-butyl-1-[cyclopropyl(phenyl)methyl]-6-hydroxy-5-[4-(2-methylpyridin-3-yl)benzenesulfonyl]-1,4-dihydropyrimidin-4-one], the EC50 is 0.01 to 10 nM.
On to `CC[C@@H](c1ccccc1)n1c(CCC(C)C)nc(=O)c(S(=O)(=O)c2ccc(-c3ccnc(F)c3C)cc2)c1O` [Example 207, 5-[4-(2-fluoro-3-methylpyridin-4-yl)benzenesulfonyl]-6-hydroxy-2-(3-methylbutyl)-1-[(1S)-1-phenylpropyl]-1,4-dihydropyrimidin-4-one], for which the half-maximal effective concentration (EC50) is 0.01 to 10 nM.
Turning to `CC[C@@H](c1ccccc1)n1c(CCC(C)C)nc(=O)c(S(=O)(=O)c2ccc(-c3ccc(F)nc3C)cc2)c1O` [Example 208, 5-[4-(6-fluoro-2-methylpyridin-3-yl)benzenesulfonyl]-6-hydroxy-2-(3-methylbutyl)-1-[(1S)-1-phenylpropyl]-1,4-dihydropyrimidin-4-one], the 50% effective concentration (EC50) is 0.01 to 10 nM.

In general, EC50 refers to the concentration that produces a half-maximal response.
